Measurements published in PubChem BioAssay AID588609 (Sanford-Burnham Center for Chemical Genomics, 2011).
Active and inactive are the calls of the source.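 The calls were made as follows: active = compounds whose averaged half-maximal activating concentration falls below 100 micromolar; inactive = the rest.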

molecular target: intestinal alkaline phosphatase (Alpi), mouse; assay: activators of mouse IAP enzyme, SAR follow-up, biochemical, luminescence, set 2 (AID 588609); details: purified muIAP, CDP-Star luminescence, 30 min

Structure (SMILES)	EC50
CN(C)S(=O)(=O)c1cccc(NC(=S)NC(c2ccccc2)c2ccccc2)c1	26 µM
COc1cccc(CNC(=S)Nc2ccc(S(=O)(=O)N(C)C)cc2)c1	45.1 µM
CC(CCc1ccccc1)NC(=S)Nc1cccc(S(=O)(=O)N(C)C)c1 (stereo not given)	44.7 µM
O=S(=O)(c1ccc(NC(=S)NC(c2ccccc2)c2ccccc2)cc1)N1CCCC1	12.7 µM
CN(C)S(=O)(=O)c1cccc(NC(=S)NCCc2cccc(Br)c2)c1	56.9 µM
CN(C)S(=O)(=O)c1ccc(NC(=S)NCC(c2ccccc2)c2ccccc2)cc1	13.4 µM
O=S(=O)(c1ccc(NC(=S)NCC(c2ccccc2)c2ccccc2)cc1)N1CCCCC1	5.37 µM
CN(C)S(=O)(=O)c1cccc(NC(=S)NCCc2cccc(O)c2)c1	> 100 µM (inactive)
CN(C)S(=O)(=O)c1cccc(NC(=S)NCCCn2ccnc2)c1	> 100 µM (inactive)
O=S(=O)(c1ccc(NC(=S)NCCC(c2ccccc2)c2ccccc2)cc1)N1CCCC1	59.3 µM
CN(C)S(=O)(=O)c1cccc(NC(=S)NCCc2ccccc2)c1	51.6 µM
Cc1ccc(C)c(NC(=S)Nc2ccc(S(=O)(=O)N3CCCCC3)cc2)c1	> 100 µM (inactive)
CCN(CC)S(=O)(=O)c1ccc(NC(=S)NC(c2ccccc2)c2ccccc2)cc1	43.9 µM
Cc1ccc(CNC(=S)Nc2cccc(S(=O)(=O)N(C)C)c2)cc1	25.9 µM
CN(C)S(=O)(=O)c1cccc(NC(=S)NCCc2cccc(F)c2)c1	20.2 µM
CN(CCc1ccccn1)C(=S)Nc1cccc(S(=O)(=O)N(C)C)c1	> 100 µM (inactive)
CCN(CC)CCCNC(=S)Nc1cccc(S(=O)(=O)N(C)C)c1	> 100 µM (inactive)
CCN(CC)S(=O)(=O)c1ccc(NC(=S)NCCC(c2ccccc2)c2ccccc2)cc1	76.9 µM
O=c1c2ccccc2[nH]c(=S)n1-c1cccc(S(=O)(=O)N2CCCC2)c1	> 100 µM (inactive)
O=S(=O)(c1ccc(NC(=S)NCC(c2ccccc2)c2ccccc2)cc1)N1CCCC1	9.09 µM
COc1ccc(CCNC(=S)Nc2ccc(S(=O)(=O)N3CCCCC3)cc2)cc1	60.6 µM
CN(C)S(=O)(=O)c1cccc(NC(=S)NCCC(=O)N2CCCC2)c1	> 100 µM (inactive)

Structure (SMILES)	EC50
O=C(CCc1ccccc1)NC(=S)Nc1cccc(S(=O)(=O)N2CCCC2)c1	> 100 µM (inactive)
CN(C)S(=O)(=O)c1ccc(NC(=S)NCCc2cccc(O)c2)cc1	> 100 µM (inactive)
CCN(CC)S(=O)(=O)c1ccc(NC(=S)NCC(c2ccccc2)c2ccccc2)cc1	19.5 µM
CC1CCN(S(=O)(=O)c2ccc(NC(=S)NCC(c3ccccc3)c3ccccc3)cc2)CC1	6.81 µM
Cc1ccc(S(=O)(=O)N(C)C)cc1NC(=S)NC1CCN(Cc2ccccc2)CC1	> 100 µM (inactive)
CN(C)S(=O)(=O)c1cccc(NC(=S)NCCCN2CCCC2=O)c1	> 100 µM (inactive)
COc1ccc(CCNC(=S)Nc2ccc(S(=O)(=O)N3CCCCC3)cc2)cc1OC	60.5 µM
CN(C)S(=O)(=O)c1cccc(NC(=S)NCCc2ccc(Br)cc2)c1	86 µM
O=S(=O)(c1ccc(NC(=S)NCCC(c2ccccc2)c2ccccc2)cc1)N1CCCCC1	44.5 µM
CN(C)S(=O)(=O)c1cccc(NC(=S)NCCN2CCCC2)c1	> 100 µM (inactive)
CN(C)S(=O)(=O)c1cccc(NC(=S)NCCC(c2ccccc2)c2ccccc2)c1	7.44 µM
COc1ccc(CNC(=S)Nc2ccc(S(=O)(=O)N3CCCCC3)cc2)cc1OC	43.7 µM
O=S(=O)(c1ccc(NC(=S)NCc2cccc(Cl)c2)cc1)N1CCCCC1	36.1 µM
O=S(=O)(c1ccc(NC(=S)NC(c2ccccc2)c2ccccc2)cc1)N1CCCCC1	4.38 µM
Cc1ccc(S(=O)(=O)N(C)C)cc1NC(=S)NC(=O)C12CC3CC(CC(C3)C1)C2	> 100 µM (inactive)
Cc1ccc(CNC(=S)Nc2ccc(S(=O)(=O)N(C)C)cc2)cc1	73.2 µM
CC(CNC(=S)Nc1cccc(S(=O)(=O)N(C)C)c1)N1CCN(c2ccccc2)CC1 (stereo not given)	87.5 µM
CC1CCN(S(=O)(=O)c2ccc(NC(=S)NCCC(c3ccccc3)c3ccccc3)cc2)CC1	12.9 µM
CCCCCCC(C)NC(=S)Nc1cc(S(=O)(=O)N(C)C)ccc1C (stereo not given)	12.3 µM
CN(C)S(=O)(=O)c1cccc(NC(=S)NCCc2ccc(F)cc2)c1	> 100 µM (inactive)
CN(C)S(=O)(=O)c1ccc(NC(=S)NCCN2CCCC2)cc1	> 100 µM (inactive)
CN(C)CC(C)(C)CNC(=S)Nc1cccc(S(=O)(=O)N(C)C)c1	> 100 µM (inactive)

Structure (SMILES)	EC50
CN(C)CCCNC(=S)Nc1cccc(S(=O)(=O)N(C)C)c1	> 100 µM (inactive)
CN(C)S(=O)(=O)c1ccc(NC(=S)NC(c2ccccc2)c2ccccc2)cc1	3.23 µM
Cc1ccc(S(=O)(=O)N(C)C)cc1NC(=S)NC(C)CCC(C)C (stereo not given)	42.7 µM
CN(CCc1ccccc1)C(=S)Nc1cccc(S(=O)(=O)N(C)C)c1	> 100 µM (inactive)
CN(C)S(=O)(=O)c1cccc(NC(=S)NCC(c2ccccc2)c2ccccc2)c1	15.3 µM
COc1ccccc1CNC(=S)Nc1ccc(S(=O)(=O)N(C)C)cc1	67.1 µM
CC1CCN(S(=O)(=O)c2ccc(NC(=S)NC(c3ccccc3)c3ccccc3)cc2)CC1	7.3 µM
CN(C)S(=O)(=O)c1ccc(NC(=S)NCCc2ccccc2)cc1	> 100 µM (inactive)
Cc1ccccc1CNC(=S)Nc1ccc(S(=O)(=O)N(C)C)cc1	47.7 µM
Cc1ccc(S(=O)(=O)N(C)C)cc1NC(=S)NCCCn1ccnc1	> 100 µM (inactive)
CN(C)S(=O)(=O)c1cccc(NC(=S)NC(C)(C)CC(C)(C)C)c1	32.1 µM
O=C(NC(=S)Nc1cc(S(=O)(=O)N2CCOCC2)ccc1N1CCOCC1)c1ccco1	> 100 µM (inactive)
O=C(NC(=S)Nc1cc(S(=O)(=O)N2CCOCC2)ccc1O)c1ccco1	> 100 µM (inactive)
CN(C)S(=O)(=O)c1ccc(NC(=S)NCCc2cccc(Br)c2)cc1	48.5 µM
Cc1ccc(S(=O)(=O)N(C)C)cc1NC(=S)NC(C)CCCC(C)C (stereo not given)	51.5 µM
CN(C)S(=O)(=O)c1ccc(NC(=S)NCCC(c2ccccc2)c2ccccc2)cc1	20.1 µM
CN(C)S(=O)(=O)c1cccc(NC(=S)NCc2ccc(Cl)cc2)c1	12.2 µM
O=S(=O)(c1ccc(NC(=S)NCc2cccc(F)c2)cc1)N1CCCCC1	28.5 µM
CCN(CC)c1ccc(C(=O)NC(=S)Nc2cc(S(=O)(=O)N3CCOCC3)ccc2-n2cncn2)cc1	> 100 µM (inactive)
CC1CC(NC(=S)Nc2cccc(S(=O)(=O)N(C)C)c2)CC(C)N1 (stereo not given)	> 100 µM (inactive)
COc1cccc(CCNC(=S)Nc2cccc(S(=O)(=O)N(C)C)c2)c1	53.7 µM
